Data taken from US20140155389A1, “BICYCLIC INHIBITORS OF ALK” (ABBVIE INC., priority 2011, published 2014).

Target: T1, ALK (Homo sapiens, UniProt Q9UM73)
T1 construct: purchased Millipore
Experiment: ALK kinase assay (HTRF)
Assay type: biochemical
Conditions: apparent Ki from IC50 by Cheng-Prusoff; ALK (Millipore) 3 nM or 4 nM, 50 μM ATP, 1 h at room temperature; read-out: HTRF_ALK Human - Ki

T1 sequence (Q9UM73 19-1620): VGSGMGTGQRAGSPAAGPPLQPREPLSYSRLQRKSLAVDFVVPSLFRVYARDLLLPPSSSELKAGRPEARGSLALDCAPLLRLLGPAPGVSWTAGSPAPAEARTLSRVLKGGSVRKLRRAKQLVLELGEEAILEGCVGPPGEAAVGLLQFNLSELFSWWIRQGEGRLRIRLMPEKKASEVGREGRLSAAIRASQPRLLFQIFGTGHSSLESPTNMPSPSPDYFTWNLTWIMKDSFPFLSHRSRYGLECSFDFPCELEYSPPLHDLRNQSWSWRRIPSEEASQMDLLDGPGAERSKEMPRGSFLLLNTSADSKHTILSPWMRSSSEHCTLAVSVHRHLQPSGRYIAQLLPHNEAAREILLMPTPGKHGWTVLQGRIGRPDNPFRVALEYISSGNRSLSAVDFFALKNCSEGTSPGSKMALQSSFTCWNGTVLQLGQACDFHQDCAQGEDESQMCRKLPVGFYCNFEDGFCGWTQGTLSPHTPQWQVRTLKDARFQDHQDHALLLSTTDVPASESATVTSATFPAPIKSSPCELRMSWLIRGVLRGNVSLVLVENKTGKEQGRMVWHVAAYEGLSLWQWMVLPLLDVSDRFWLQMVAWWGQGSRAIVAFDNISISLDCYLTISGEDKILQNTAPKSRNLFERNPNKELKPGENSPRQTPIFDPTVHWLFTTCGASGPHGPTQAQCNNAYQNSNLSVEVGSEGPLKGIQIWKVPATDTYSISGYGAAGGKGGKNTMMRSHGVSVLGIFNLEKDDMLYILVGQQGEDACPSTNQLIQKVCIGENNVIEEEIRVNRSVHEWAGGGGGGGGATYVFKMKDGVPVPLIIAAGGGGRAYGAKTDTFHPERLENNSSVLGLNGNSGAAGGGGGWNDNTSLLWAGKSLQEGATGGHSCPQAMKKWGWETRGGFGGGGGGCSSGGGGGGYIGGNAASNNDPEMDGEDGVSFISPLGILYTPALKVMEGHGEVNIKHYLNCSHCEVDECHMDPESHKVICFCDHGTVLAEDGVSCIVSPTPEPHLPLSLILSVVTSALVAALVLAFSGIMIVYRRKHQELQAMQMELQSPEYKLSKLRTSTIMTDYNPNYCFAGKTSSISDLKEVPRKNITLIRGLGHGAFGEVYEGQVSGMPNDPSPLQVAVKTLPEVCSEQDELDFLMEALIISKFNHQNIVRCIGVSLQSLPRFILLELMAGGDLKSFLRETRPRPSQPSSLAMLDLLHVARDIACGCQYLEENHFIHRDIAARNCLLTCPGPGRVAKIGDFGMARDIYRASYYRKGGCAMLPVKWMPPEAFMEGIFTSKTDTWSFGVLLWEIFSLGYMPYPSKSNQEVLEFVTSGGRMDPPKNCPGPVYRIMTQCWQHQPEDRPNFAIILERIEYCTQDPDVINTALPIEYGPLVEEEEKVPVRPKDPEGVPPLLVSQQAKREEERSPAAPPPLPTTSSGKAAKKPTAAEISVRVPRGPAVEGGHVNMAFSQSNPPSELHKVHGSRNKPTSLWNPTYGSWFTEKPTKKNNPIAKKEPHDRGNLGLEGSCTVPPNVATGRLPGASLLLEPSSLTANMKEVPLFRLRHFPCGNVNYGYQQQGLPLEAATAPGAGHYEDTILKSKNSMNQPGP

SMILES	Ki
COc1cc(N2CCNCC2)ccc1Nc1nc(Cc2c(Cl)cccc2Cl)cc2c1C(=O)NCN2 [Example 1, 7-(2,6-dichlorobenzyl)-5-{[2-methoxy-4-(piperazin-1-yl)phenyl]amino}-2,3-dihydropyrido[4,3-d]pyrimidin-4(1H)-one]	11 nM
COc1cc(N2CCNCC2)ccc1Nc1nc(Cc2c(Cl)cccc2Cl)cc2cnnc(O)c12 [Example 2, 7-(2,6-dichlorobenzyl)-5-{[2-methoxy-4-(piperazin-1-yl)phenyl]amino}pyrido[3,4-d]pyridazin-4-ol]	1.4 nM
COc1cc(N2CCNCC2)ccc1Nc1cc(Cc2c(Cl)cccc2Cl)nc2c1C(=O)NCCN2 [Example 3, 8-(2,6-dichlorobenzyl)-6-{[2-methoxy-4-(piperazin-1-yl)phenyl]amino}-1,2,3,4-tetrahydro-5H-pyrido[2,3-e][1,4]diazepin-5-one]	660 nM
O=C1NCCNc2nc(Cc3c(Cl)cccc3Cl)cc(Nc3ccc(N4CCNCC4)cc3)c21 [Example 4, 8-(2,6-dichlorobenzyl)-6-{[4-(piperazin-1-yl)phenyl]amino}-1,2,3,4-tetrahydro-5H-pyrido[2,3-e][1,4]diazepin-5-one]	940 nM
Oc1nncc2cc(Cc3c(Cl)cccc3Cl)nc(Nc3ccc(N4CCNCC4)cc3)c12 [Example 5, 7-(2,6-dichlorobenzyl)-5-{[4-(piperazin-1-yl)phenyl]amino}pyrido[3,4-d]pyridazin-4-ol]	1 nM
O=C1NCCNc2cc(Cc3c(Cl)cccc3Cl)nc(Nc3ccc(N4CCNCC4)cc3)c21 [Example 6, 8-(2,6-dichlorobenzyl)-6-{[4-(piperazin-1-yl)phenyl]amino}-1,2,3,4-tetrahydro-5H-pyrido[4,3-e][1,4]diazepin-5-one]	602 nM
Cc1cc(Nc2nc(Cc3c(Cl)cccc3Cl)cc3cn[nH]c(=O)c23)ccc1N1CCNCC1 [Example 7, 7-(2,6-dichlorobenzyl)-5-{[3-methyl-4-(piperazin-1-yl)phenyl]amino}pyrido[3,4-d]pyridazin-4(3H)-one]	1 nM
COc1cc(N2CCN(C3CCCCC3)CC2)ccc1Nc1nc(Cc2c(Cl)cccc2Cl)cc2cn[nH]c(=O)c12 [Example 8, 5-{[4-(4-cyclohexylpiperazin-1-yl)-2-methoxyphenyl]amino}-7-(2,6-dichlorobenzyl)pyrido[3,4-d]pyridazin-4(3H)-one]	> 470 nM
COc1cc(N2CCN(C(=O)c3ccccc3)CC2)ccc1Nc1nc(Cc2c(Cl)cccc2Cl)cc2cnnc(O)c12 [Example 9, [4-(4-{[7-(2,6-dichlorobenzyl)-4-hydroxypyrido[3,4-d]pyridazin-5-yl]amino}-3-methoxyphenyl)piperazin-1-yl](phenyl)methanone]	> 470 nM
COc1cc(N2CCNCC2)ccc1Nc1nc(Nc2c(Cl)cccc2Cl)cc2cnnc(O)c12 [Example 10, 7-[(2,6-dichlorophenyl)amino]-5-{[2-methoxy-4-(piperazin-1-yl)phenyl]amino}pyrido[3,4-d]pyridazin-4-ol]	2 nM
COc1cc(N2CCN(S(=O)(=O)C(C)C)CC2)ccc1Nc1nc(Cc2c(Cl)cccc2Cl)cc2cnnc(O)c12 [Example 11, 7-(2,6-dichlorobenzyl)-5-({2-methoxy-4-[4-(propan-2-ylsulfonyl)piperazin-1-yl]phenyl}amino)pyrido[3,4-d]pyridazin-4-ol]	> 4700 nM
COc1cc(N2CCN(C(=O)CN(C)C)CC2)ccc1Nc1nc(Cc2c(Cl)cccc2Cl)cc2cnnc(O)c12 [Example 12, 1-[4-(4-{[7-(2,6-dichlorobenzyl)-4-hydroxypyrido[3,4-d]pyridazin-5-yl]amino}-3-methoxyphenyl)piperazin-1-yl]-2-(dimethylamino)ethanone]	3 nM
O=c1[nH]ncc2cc(Cc3c(Cl)cccc3Cl)nc(Nc3ccc(N4CCNCC4)c(Cl)c3)c12 [Example 13, 5-{[3-chloro-4-(piperazin-1-yl)phenyl]amino}-7-(2,6-dichlorobenzyl)pyrido[3,4-d]pyridazin-4(3H)-one]	1 nM
O=c1[nH]ncc2cc(Cc3c(Cl)cccc3Cl)nc(Nc3ccc(N4CCNCC4)cn3)c12 [Example 14, 7-(2,6-dichlorobenzyl)-5-{[5-(piperazin-1-yl)pyridin-2-yl]amino}pyrido[3,4-d]pyridazin-4(3H)-one]	13 nM
COc1cc(N2CCN(C3CCN(C)CC3)CC2)ccc1Nc1nc(Cc2c(Cl)cccc2Cl)cc2cn[nH]c(=O)c12 [Example 15, 7-(2,6-dichlorobenzyl)-5-({2-methoxy-4-[4-(1-methylpiperidin-4-yl)piperazin-1-yl]phenyl}amino)pyrido[3,4-d]pyridazin-4(3H)-one]	3 nM
COc1cc(N2CCN(CCC(C)C)CC2)ccc1Nc1nc(Cc2c(Cl)cccc2Cl)cc2cn[nH]c(=O)c12 [Example 16, 7-(2,6-dichlorobenzyl)-5-({2-methoxy-4-[4-(3-methylbutyl)piperazin-1-yl]phenyl}amino)pyrido[3,4-d]pyridazin-4(3H)-one]	> 4700 nM
COc1cc(CCN2CCCC2)ccc1Nc1nc(Cc2c(Cl)cccc2Cl)cc2cn[nH]c(=O)c12 [Example 17, 7-(2,6-dichlorobenzyl)-5-({2-methoxy-4-[2-(pyrrolidin-1-yl)ethyl]phenyl}amino)pyrido[3,4-d]pyridazin-4(3H)-one]	6 nM
COc1cc(CC(=O)N2CCCC2)ccc1Nc1nc(Cc2c(Cl)cccc2Cl)cc2cn[nH]c(=O)c12 [Example 18, 7-(2,6-dichlorobenzyl)-5-({2-methoxy-4-[2-oxo-2-(pyrrolidin-1-yl)ethyl]phenyl}amino)pyrido[3,4-d]pyridazin-4(3H)-one]	3100 nM
COc1cc(N2CCN(C(=O)CC(C)C)CC2)ccc1Nc1nc(Cc2c(Cl)cccc2Cl)cc2cn[nH]c(=O)c12 [Example 19, 7-(2,6-dichlorobenzyl)-5-({2-methoxy-4-[4-(3-methylbutanoyl)piperazin-1-yl]phenyl}amino)pyrido[3,4-d]pyridazin-4(3H)-one]	> 4700 nM
O=c1[nH]ncc2cc(Cc3c(Cl)cccc3Cl)nc(Nc3cc(F)c(N4CCNCC4)cc3F)c12 [Example 20, 7-(2,6-dichlorobenzyl)-5-{[2,5-difluoro-4-(piperazin-1-yl)phenyl]amino}pyrido[3,4-d]pyridazin-4(3H)-one]	3 nM
Cc1cc(N2CCNCC2)cc(C)c1Nc1nc(Cc2c(Cl)cccc2Cl)cc2cnnc(O)c12 [Example 21, 7-(2,6-dichlorobenzyl)-5-{[2,6-dimethyl-4-(piperazin-1-yl)phenyl]amino}pyrido[3,4-d]pyridazin-4-ol]	368 nM
COc1cc(N2CCNCC2)ccc1Nc1nc(Nc2ccccc2S(=O)(=O)C(C)C)cc2cn[nH]c(=O)c12 [Example 22, 5-{[2-methoxy-4-(piperazin-1-yl)phenyl]amino}-7-{[2-(propan-2-ylsulfonyl)phenyl]amino}pyrido[3,4-d]pyridazin-4(3H)-one]	2 nM
COc1cc(N2CCNCC2)ccc1Nc1nc(NC2=N[C@H](C(C)C)CO2)cc2cnnc(O)c12 [Example 23, 5-{[2-methoxy-4-(piperazin-1-yl)phenyl]amino}-7-{[(4R)-4-(propan-2-yl)-4,5-dihydro-1,3-oxazol-2-yl]amino}pyrido[3,4-d]pyridazin-4-ol]	21 nM
COc1cc(N2CCNCC2)ccc1Nc1nc(Nc2ccccc2Cl)cc2cn[nH]c(=O)c12 [Example 24, 7-[(2-chlorophenyl)amino]-5-{[2-methoxy-4-(piperazin-1-yl)phenyl]amino}pyrido[3,4-d]pyridazin-4(3H)-one]	4 nM
